Data taken from ChEMBL document CHEMBL1255278, “Caspofungin prolongs survival of transiently neutropenic rats with advanced-stage invasive pulmonary aspergillosis” (Antimicrob Agents Chemother, 2008).
≈ marks a conversion by molar mass, not a printed value.

Tests used:
[1] = test system: Rattus norvegicus; test: Hepatotoxicity in neutropenic rat assessed as ALAT level in serum at 4 mg/kg/day, ip administered 72 hrs post infection for 10 days measured on day 13 after infection (Rvb=51.3+/-5.2 U/l); type: toxicity, organism-based; parameters: route intraperitoneal; settings: in vivo
[2] = test system: Rattus norvegicus; test: Renal toxicity in neutropenic rat assessed as blood urea nitrogen level in serum at 10 mg/kg/day, ip administered 72 hrs post infection for 3 days followed by 4 mg/kg/day, ip for 7 days measured on day 6 after infection (Rvb=4.4+/-0.5 mmol/l); type: organism-based; settings: in vivo
[3] = test system: Rattus norvegicus; test: Hepatotoxicity in neutropenic rat assessed as ALAT level in serum at 10 mg/kg/day, ip administered 72 hrs post infection for 10 days measured on day 6 after infection (Rvb=43.9+/-7.9 U/l); type: toxicity, organism-based; parameters: route intraperitoneal; settings: in vivo
[4] = test system: Aspergillus fumigatus; test: Antifungal activity against Aspergillus fumigatus by Etest method; type: functional
[5] = test system: Rattus norvegicus; test: Hepatotoxicity in neutropenic rat assessed as ALAT level in serum at 10 mg/kg/day, ip administered 72 hrs post infection for 3 days followed by 4 mg/kg/day, ip for 7 days measured on day 13 after infection (Rvb=51.3+/-5.2 U/l); type: toxicity, organism-based; settings: in vivo
[6] = test system: Rattus norvegicus; test: Renal toxicity in neutropenic rat assessed as […] in serum at 10 mg/kg/day, ip administered 72 hrs post infection for 10 days measured on day 6 after infection (Rvb=34.8+/-5.8 umol/l); type: organism-based; parameters: route intraperitoneal; settings: in vivo
[7] = test system: Rattus norvegicus; test: Hepatotoxicity in neutropenic rat assessed as ASAT level in serum at 10 mg/kg/day, ip administered 72 hrs post infection for 3 days followed by 4 mg/kg/day, ip for 7 days measured on day 13 after infection (Rvb=46.6+/-6.1 U/l); type: toxicity, organism-based; settings: in vivo
[8] = test system: Aspergillus fumigatus; test: Antifungal activity against Aspergillus fumigatus infected in neutropenic rat assessed as survival of rat at 10 mg/kg/day, ip administered 72 hrs post infection for 10 days; type: functional; settings: route intraperitoneal
[9] = test system: Aspergillus fumigatus; test: Antifungal activity against Aspergillus fumigatus infected in neutropenic rat assessed as survival of rat at 4 mg/kg/day, ip administered 16 hrs post infection for 10 days; type: functional; settings: route intraperitoneal
[10] = test system: Rattus norvegicus; test: Renal toxicity in neutropenic rat assessed as […] in serum at 10 mg/kg/day, ip administered 72 hrs post infection for 3 days followed by 4 mg/kg/day, ip for 7 days measured on day 13 after infection (Rvb=26.7+/-6.1 umol/l); type: organism-based; settings: in vivo
[11] = test system: Rattus norvegicus; test: Hepatotoxicity in neutropenic rat assessed as ASAT level in serum at 10 mg/kg/day, ip administered 72 hrs post infection for 10 days measured on day 13 after infection (Rvb=46.6+/-6.1 U/l); type: toxicity, organism-based; parameters: route intraperitoneal; settings: in vivo
[12] = test system: Rattus norvegicus; test: Hepatotoxicity in neutropenic rat assessed as ASAT level in serum at 4 mg/kg/day, ip administered 72 hrs post infection for 10 days measured on day 13 after infection (Rvb=46.6+/-6.1 U/l); type: toxicity, organism-based; parameters: route intraperitoneal; settings: in vivo
[13] = test system: Rattus norvegicus; test: Hepatotoxicity in neutropenic rat assessed as ASAT level in serum at 4 mg/kg/day, ip administered 72 hrs post infection for 10 days measured on day 6 after infection (Rvb=51.2+/-9.4 U/l); type: toxicity, organism-based; parameters: route intraperitoneal; settings: in vivo
[14] = test system: Rattus norvegicus; test: Renal toxicity in neutropenic rat assessed as creatine level in serum at 10 mg/kg/day, ip administered 72 hrs post infection for 10 days measured on day 13 after infection (Rvb=26.7+/-6.1 umol/l); type: organism-based; parameters: route intraperitoneal; settings: in vivo
[15] = test system: Rattus norvegicus; test: Hepatotoxicity in neutropenic rat assessed as ALAT level in serum at 4 mg/kg/day, ip administered 72 hrs post infection for 10 days measured on day 6 after infection (Rvb=43.9+/-7.9 U/l); type: toxicity, organism-based; parameters: route intraperitoneal; settings: in vivo
[16] = test system: Aspergillus fumigatus; test: Antifungal activity against Aspergillus fumigatus infected in neutropenic rat assessed as survival of rat at 4 mg/kg/day, ip administered 24 hrs post infection for 10 days; type: functional; settings: route intraperitoneal
[17] = test system: Rattus norvegicus; test: Renal toxicity in neutropenic rat assessed as creatine level in serum at 10 mg/kg/day, ip administered 72 hrs post infection for 3 days followed by 4 mg/kg/day, ip for 7 days measured on day 6 after infection (Rvb=34.8+/-5.8 umol/l); type: organism-based; settings: in vivo
[18] = test system: Rattus norvegicus; test: Hepatotoxicity in neutropenic rat assessed as ASAT level in serum at 10 mg/kg/day, ip administered 72 hrs post infection for 10 days measured on day 6 after infection (Rvb=51.2+/-9.4 U/l); type: toxicity, organism-based; parameters: route intraperitoneal; settings: in vivo
[19] = test system: Rattus norvegicus; test: Renal toxicity in neutropenic rat assessed as blood urea nitrogen level in serum at 4 mg/kg/day, ip administered 72 hrs post infection for 10 days measured on day 6 after infection (Rvb=4.4+/-0.5 mmol/l); type: organism-based; parameters: route intraperitoneal; settings: in vivo
[20] = test system: Rattus norvegicus; test: Hepatotoxicity in neutropenic rat assessed as ALAT level in serum at 10 mg/kg/day, ip administered 72 hrs post infection for 3 days followed by 4 mg/kg/day, ip for 7 days measured on day 6 after infection (Rvb=43.9+/-7.9 U/l); type: toxicity, organism-based; settings: in vivo
[21] = test system: Rattus norvegicus; test: Hepatotoxicity in neutropenic rat assessed as ALAT level in serum at 10 mg/kg/day, ip administered 72 hrs post infection for 10 days measured on day 13 after infection (Rvb=51.3+/-5.2 U/l); type: toxicity, organism-based; parameters: route intraperitoneal; settings: in vivo
[22] = AUC in neutropenic rat at 10 mg/kg/day after 3 days; type: ADME, organism-based; settings: plasma
[23] = test system: Aspergillus fumigatus; test: Antifungal activity against Aspergillus fumigatus infected in neutropenic rat assessed as survival of rat at 4 mg/kg/day, ip administered 72 hrs post infection for 10 days; type: functional; settings: route intraperitoneal
[24] = test system: Aspergillus fumigatus; test: Antifungal activity against Aspergillus fumigatus by CLSI method; type: functional
[25] = AUC in neutropenic rat at 10 mg/kg/day for 3 days followed by 4 mg/kg/day for 7 days measured after 10 days; type: ADME, organism-based; settings: plasma
[26] = test system: Rattus norvegicus; test: Renal toxicity in neutropenic rat assessed as creatine level in serum at 4 mg/kg/day, ip administered 72 hrs post infection for 10 days measured on day 6 after infection (Rvb=34.8+/-5.8 umol/l); type: organism-based; parameters: route intraperitoneal; settings: in vivo
[27] = test system: Rattus norvegicus; test: Renal toxicity in neutropenic rat assessed as blood urea nitrogen level in serum at 4 mg/kg/day, ip administered 72 hrs post infection for 10 days measured on day 13 after infection (Rvb=5.8+/-0.4 mmol/l); type: organism-based; parameters: route intraperitoneal; settings: in vivo
[28] = test system: Rattus norvegicus; test: Renal toxicity in neutropenic rat assessed as blood urea nitrogen level in serum at 10 mg/kg/day, ip administered 72 hrs post infection for 3 days followed by 4 mg/kg/day, ip for 7 days measured on day 13 after infection (Rvb=5.8+/-0.4 mmol/l); type: organism-based; settings: in vivo
[29] = test system: Rattus norvegicus; test: Renal toxicity in neutropenic rat assessed as blood urea nitrogen level in serum at 10 mg/kg/day, ip administered 72 hrs post infection for 10 days measured on day 13 (Rvb=5.8+/-0.4 mmol/l); type: organism-based; parameters: route intraperitoneal; settings: in vivo
[30] = test system: Rattus norvegicus; test: Hepatotoxicity in neutropenic rat assessed as ASAT level in serum at 10 mg/kg/day, ip administered 72 hrs post infection for 3 days followed by 4 mg/kg/day, ip for 7 days measured on day 6 after infection (Rvb=51.2+/-9.4 U/l); type: toxicity, organism-based; settings: in vivo
[31] = test system: Rattus norvegicus; test: Renal toxicity in neutropenic rat assessed as creatine level in serum at 4 mg/kg/day, ip administered 72 hrs post infection for 10 days measured on day 13 after infection (Rvb=26.7+/-6.1 umol/l); type: organism-based; parameters: route intraperitoneal; settings: in vivo
[32] = test system: Rattus norvegicus; test: Renal toxicity in neutropenic rat assessed as blood urea nitrogen level in serum at 10 mg/kg/day, ip administered 72 hrs post infection for 10 days measured on day 6 after infection (Rvb=4.4+/-0.5 mmol/l); type: organism-based; parameters: route intraperitoneal; settings: in vivo

SMILES: CC[C@H](C)C[C@H](C)CCCCCCCCC(=O)N[C@H]1C[C@@H](O)[C@@H](NCCN)NC(=O)[C@@H]2[C@@H](O)CCN2C(=O)[C@H]([C@H](O)CCN)NC(=O)[C@H]([C@H](O)[C@@H](O)c2ccc(O)cc2)NC(=O)[C@@H]2C[C@@H](O)CN2C(=O)[C@H]([C@@H](C)O)NC1=O [CASPOFUNGIN]
- Activity [1]: 94.2 U/L
- Activity [2]: 5.9 mmol/L
- Activity [3]: 31.5 U/L
- MIC [4]: 0.05 µg/mL (≈ 0.0457 µM)
- Activity [5]: 50.5 U/L
- Activity [6]: 42 µmol/L
- Activity [7]: 50.2 U/L
- Activity [8]: 67%
- Activity [9]: 100%
- Activity [10]: 31 µmol/L
- Activity [11]: 68 U/L
- Activity [12]: 138.4 U/L
- Activity [13]: 118 U/L
- Activity [14]: 28.4 µmol/L
- Activity [15]: 41.4 U/L
- Activity [16]: 93%
- Activity [17]: 36.5 µmol/L
- Activity [18]: 113 U/L
- Activity [19]: 12.2 mmol/L
- Activity [20]: 61.6 U/L
- Activity [21]: 36.4 U/L
- AUC at 72 h [22]: 549 µg·h/mL
- Activity [23]: 27%
- MIC [24]: 8 µg/mL (≈ 7.32 µM)
- AUC at 240 h [25]: 114 µg·h/mL
- Activity [26]: 44.3 µmol/L
- Activity [27]: 15.7 mmol/L
- Activity [28]: 6.9 mmol/L
- Activity [29]: 11.4 mmol/L
- Activity [30]: 49.3 U/L
- Activity [31]: 24 µmol/L
- Activity [32]: 10.9 mmol/L
